According to article PMC5517430, “2,3,7,8-Tetrachlorodibenzo-p-dioxin (TCDD)-elicited effects on bile acid homeostasis: Alterations in biosynthesis, enterohepatic circulation, and microbial metabolism” (Scientific Reports, 2017):

Key:
[1] = system: gallbladder of male C57BL/6 mice; experiment: Gallbladder volume (micro-caliper, ellipsoid); type: in vivo, mouse; settings: 30 µg/kg TCDD every 4 d for 28 d
Experimental: At 25d after the initial dose (PND53), fecal pellets from the previous 24 hours (h) were collected from each cage (4 mice per cage) and stored at −80 °C. At 28d after the initial exposure (PND56), mice (fasted for 6 h) were weighed and blood was collected from the submandibular vein prior to cervical dislocation. The gallbladder length, width, and depth were measured using a micro-caliper. Its volume was calculated assuming an ellipsoid shape: volume (µL) = length (mm) × width (mm) × depth (mm) × π/6[63], [64]. The distal ileum (10 cm section extending from the caecum toward the jejunum) was removed, flushed with Ca^2+/Mg^2+-free phosphate buffered saline (PBS; Sigma), and opened longitudinally. The epithelial lining was scraped into a vial containing TRIzol (Invitrogen, Carlsbad, CA), frozen in liquid nitrogen, and stored at −80 °C. Liver, gonadal white adipose tissue (gWAT), and brown adipose tissue were removed, weighed, frozen in liquid nitrogen, and stored at −80 °C. Serum alkaline phosphatase (ALP) activity was determined using a commercial kit (Pointe Scientific, Canton, MI).

[2] = set-up: method as in PMID 6138222; settings: mice; cited from earlier work
[3] = system: Slc51a; experiment: Ileal epithelium RNA-Seq differential gene expression (fold change, P1(t), ED50, BMD, BMDL); type: in vivo, mouse; set-up: key to Cyp3a44 P1(t)_30: statistical P1(t) value; differentially expressed if ≥ 0.8; settings: C57BL/6, mouse, ileal epithelium, oral; male mice, TCDD every 4 d for 28 d
Experimental: (§1) Frozen ileal epithelium scrapings and liver samples were homogenized in TRIzol (Ambion, Waltham, MA) using a Mixer Mill 300 tissue homogenizer (Retsch, Germany) and total RNA was isolated as previously described. RNA was quantified using a Nano-drop spectrophotometer (Thermo Scientific, Wilmington, DE) at 260 nm, and purity was assessed using the A260/A280 ratio and the Caliper LabChip GX (Perkin Elmer, Waltham, MA).
(§2) Dose-dependent gene expression was examined using RNA-Seq performed at the MSU Research Technology Support Facility (RTSF) Genomics Core (rtsf.natsci.msu.edu/genomics). Ileal libraries from three independent biological replicates (n = 3) were prepared using the Ovation Mouse RNA-Seq System 1–16 sample preparation kit (NuGen, San Carlos, CA), with an additional DNase step. Libraries were quantified and sequenced as previously described, using a read depth of ~30 M per sample[33], [67]. Quality was determined using FASTQC v0.11.3 and adaptor sequences were removed using Trimmomatic v0.33. Reads were mapped to the mouse reference genome (GRCm38 release 81) using Bowtie2 v2.2.6 and TopHat2 v2.1.0. Alignments were converted to SAM format using SAMTools v1.2.0. For TCDD-mediated differential gene expression, fold changes were calculated relative to vehicle controls. Hepatic RNA-Seq analysis was previously published. Genes were considered differentially expressed if |fold change| ≥ 1.5 and statistical P1(t) value ≥ 0.8 at one or more doses. RNA-Seq datasets for the ileal epithelium and liver were deposited in the Gene Expression Omnibus (GEO; accession number GSE89430 and GSE87519, respectively). The RNA-Seq results (fold changes, P1(t) values) for each gene discussed in the manuscript have been compiled in Supplementary Table S1. […] Estimation of benchmark dose (BMD) and BMD lower confidence limit (BMDL) was performed using BMDExpress[69] as previously described, and has been included in Supplementary Table S1.

[4] = system: ileal gene expression; experiment: as above; type: in vivo, mouse; set-up: key to Cyp3a44 P1(t)_30: statistical P1(t) value; differentially expressed if ≥ 0.8
Experimental: as §1, §2

[5] = system: Slc10a2; experiment: as above; type: in vivo, mouse; set-up: key to Cyp3a44 P1(t)_30: statistical P1(t) value; differentially expressed if ≥ 0.8; settings: C57BL/6, mouse, ileal epithelium, oral; male mice, TCDD every 4 d for 28 d
Experimental: as §1, §2

[6] = ileum, 0.01 µg/kg TCDD, relative to vehicle control
[7] = ileum, 0.03 µg/kg TCDD, relative to vehicle control
[8] = ileum, 0.1 µg/kg TCDD, relative to vehicle control
[9] = ileum, 0.3 µg/kg TCDD, relative to vehicle control
[10] = ileum, 1 µg/kg TCDD, relative to vehicle control
[11] = ileum, 3 µg/kg TCDD, relative to vehicle control
[12] = ileum, 10 µg/kg TCDD, relative to vehicle control
[13] = ileum, 30 µg/kg TCDD, relative to vehicle control
[14] = male mice, TCDD every 4 d for 28 d

## Clc1cc2c(cc1Cl)Oc1cc(Cl)c(Cl)cc1O2 [TCDD, 2,3,7,8-tetrachlorodibenzo-p-dioxin]
[1]
  Gallbladder volume, fold increase compared to controls: 2.5 fold
[2]
  Half-life: 8 to 12 days
[3]
  fold induction at 28 d: 1.5
[4]; ileum
  Cyp3a44 BMD: 36.49 µg/kg TCDD
  Cyp3a44 BMDL: 18.80 µg/kg TCDD
  Cyp3a44 Differentially Expressed?: YES
  Cyp3a44 ED50: Not sigmoidal
  Fgf15 BMD: No model fit
  Fgf15 BMDL: No model fit
  Fgf15 Differentially Expressed?: YES
  Fgf15 ED50: 9.00 µg/kg TCDD
  Slc10a2 (ASBT or IBAT) BMD: 5.66 µg/kg TCDD
  Slc10a2 (ASBT or IBAT) BMDL: 0.69 µg/kg TCDD
  Slc10a2 (ASBT or IBAT) Differentially Expressed?: YES
  Slc10a2 (ASBT or IBAT) ED50: 0.98 µg/kg TCDD
  Slc51a (OSTα) BMD: No model fit
  Slc51a (OSTα) BMDL: No model fit
  Slc51a (OSTα) Differentially Expressed?: YES
  Slc51a (OSTα) ED50: 0.89 µg/kg TCDD
[4]; ileum, 0.01 µg/kg TCDD
  Cyp3a44 P1(t)_0.01: -0.1316
[4]; [6]
  Cyp3a44 FC_0.01: 0.91
  Fgf15 FC_0.01: 0.81
  Slc10a2 (ASBT or IBAT) FC_0.01: 0.93
  Slc51a (OSTα) FC_0.01: 0.98
  Slc51b (OSTβ) FC_0.01: 0.88
[4]; ileum, 0.03 µg/kg TCDD
  Cyp3a44 P1(t)_0.03: 0.0640
[4]; [7]
  Cyp3a44 FC_0.03: 0.80
  Fgf15 FC_0.03: 0.63
  Slc10a2 (ASBT or IBAT) FC_0.03: 0.93
  Slc51a (OSTα) FC_0.03: 0.96
  Slc51b (OSTβ) FC_0.03: 0.87
[4]; ileum, 0.1 µg/kg TCDD
  Cyp3a44 P1(t)_0.1: -0.1090
[4]; [8]
  Cyp3a44 FC_0.1: 0.89
  Fgf15 FC_0.1: 0.85
  Slc10a2 (ASBT or IBAT) FC_0.1: 0.92
  Slc51a (OSTα) FC_0.1: 0.98
  Slc51b (OSTβ) FC_0.1: 0.88
[4]; ileum, 0.3 µg/kg TCDD
  Cyp3a44 P1(t)_0.3: 0.6027
[4]; [9]
  Cyp3a44 FC_0.3: 0.61
  Fgf15 FC_0.3: 1.12
  Slc10a2 (ASBT or IBAT) FC_0.3: 0.74
  Slc51a (OSTα) FC_0.3: 1.07
  Slc51b (OSTβ) FC_0.3: 0.88
[4]; ileum, 1 µg/kg TCDD
  Cyp3a44 P1(t)_1: 0.5083
[4]; [10]
  Cyp3a44 FC_1: 0.65
  Fgf15 FC_1: 1.50
  Slc10a2 (ASBT or IBAT) FC_1: 1.19
  Slc51a (OSTα) FC_1: 1.30
  Slc51b (OSTβ) FC_1: 0.90
[4]; ileum, 3 µg/kg TCDD
  Cyp3a44 P1(t)_3: -0.1130
[4]; [11]
  Cyp3a44 FC_3: 1.12
  Fgf15 FC_3: 1.99
  Slc10a2 (ASBT or IBAT) FC_3: 1.22
  Slc51a (OSTα) FC_3: 1.46
  Slc51b (OSTβ) FC_3: 0.95
[4]; ileum, 10 µg/kg TCDD
  Cyp3a44 P1(t)_10: 0.9033
[4]; [12]
  Cyp3a44 FC_10: 0.46
  Fgf15 FC_10: 0.51
  Slc10a2 (ASBT or IBAT) FC_10: 1.38
  Slc51a (OSTα) FC_10: 1.34
  Slc51b (OSTβ) FC_10: 0.93
[4]; ileum, 30 µg/kg TCDD
  Cyp3a44 P1(t)_30: 0.7035
[4]; [13]
  Cyp3a44 FC_30: 0.58
  Fgf15 FC_30: 0.10
  Slc10a2 (ASBT or IBAT) FC_30: 1.59
  Slc51a (OSTα) FC_30: 1.15
  Slc51b (OSTβ) FC_30: 0.79
[4]; [14]
  Cyp3a44 ileal expression, fold repression: 2.2 fold
  Slc51b ileal expression: unchanged
[5]
  fold induction at 28 d: 1.6
